Laboratory results taken from patent US20170000133A1, “BENZOXABOROLE FUNGICIDES” (SYNGENTA PARTICIPATIONS AG, priority 2013, published 2017).

How the values were obtained:
Pythium ultimum = Pythium ultimum / liquid culture (seedling damping off); type: cell-based; settings: Globisporangium ultimum; 200 ppm; potato dextrose broth, 24° C., 2-3 days after application; read-out: disease control (inhibition of growth determined photometrically)
[1] = tested on: Glomerella lagenarium (Colletotrichum lagenarium); test: Glomerella lagenarium (Colletotrichum lagenarium) / liquid culture (anthracnose); type: cell-based; settings: Colletotrichum orbiculare, PDB potato dextrose broth, 24° C., 3-4 days after application, read-out: disease control (inhibition of growth measured photometrically)
Procedure: (§1) 11. Glomerella lagenarium (Colletotrichum lagenarium)/Liquid Culture (Anthracnose): Conidia of the fungus from cryogenic storage were directly mixed into nutrient broth (PDB potato dextrose broth). After placing a DMSO solution of test compound into a 96-well microtiter plate at an application rate of 200 ppm, the nutrient broth containing the fungal spores was added. The test plates were incubated at 24° C. and the inhibition of growth was measured photometrically 3-4 days after application.

[2] = tested on: Mycosphaerella arachidis (Cercospora arachidicola); test: Mycosphaerella arachidis (Cercospora arachidicola) / liquid culture (early leaf spot); type: cell-based; settings: PDB potato dextrose broth, 24° C., 4-5 days after application, read-out: disease control (inhibition of growth determined photometrically)
Procedure: as §1, with “12. Mycosphaerella arachidis (Cercospora arachidicola)/Liquid” for “11. Glomerella lagenarium (Colletotrichum lagenarium)/Liquid”, “(Early Leaf Spot):” for “(Anthracnose):”, “determined” for “measured”, “4-5” for “3-4”

[3] = tested on: Mycosphaerella graminicola (Septoria tritici); test: Mycosphaerella graminicola (Septoria tritici) / liquid culture (Septoria blotch); type: cell-based; settings: Zymoseptoria tritici, PDB potato dextrose broth, 24° C., 4-5 days after application, read-out: disease control (inhibition of growth determined photometrically)
Procedure: as §1, with “13. Mycosphaerella graminicola (Septoria tritici)/Liquid” for “11. Glomerella lagenarium (Colletotrichum lagenarium)/Liquid”, “(Septoria Blotch):” for “(Anthracnose):”, “determined” for “measured”, “4-5” for “3-4”

[4] = tested on: Monographella nivalis (Microdochium nivale); test: Monographella nivalis (Microdochium nivale) / liquid culture (foot rot cereals); type: cell-based; settings: PDB potato dextrose broth, 24° C., 4-5 days after application, read-out: disease control (inhibition of growth determined photometrically)
[5] = tested on: Thanatephorus cucumeris (Rhizoctonia solani); test: Thanatephorus cucumeris (Rhizoctonia solani) / liquid culture (foot rot, damping-off); type: cell-based; settings: PDB potato dextrose broth, 24° C., 3-4 days after application, read-out: disease control (inhibition of growth determined photometrically)
Procedure: 17. Thanatephorus cucumeris (Rhizoctonia solani)/Liquid Culture (Foot Rot, Damping-Off): Mycelia fragments of a newly grown liquid culture of the fungus were directly mixed into nutrient broth (PDB potato dextrose broth). After placing a DMSO solution of the test compounds into a 96-well microtiter plate at an application rate of 200 ppm, the nutrient broth containing the fungal material was added. The test plates were incubated at 24° C. and the inhibition of growth was determined photometrically 3-4 days after application.

Gaeumannomyces graminis = Gaeumannomyces graminis / liquid culture (take-all of cereals); type: cell-based; settings: PDB potato dextrose broth, 24° C., 4-5 days after application, read-out: disease control (inhibition of growth determined photometrically)
Outline: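 Cryo-stored mycelial fragments in potato dextrose broth exposed to compound in DMSO at 200 ppm. Incubated at 24 °C; growth inhibition read photometrically 4–5 days after application.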

Plasmopara viticola = test: whole plant or invertebrate; type: in vivo; settings: foliar, read-out: disease control

CCCCSCCOC(=O)c1cc2c(cc1Cl)COB2O [Compound 198]
≥ 80%: inhibition at 200 ppm (Pythium ultimum) | inhibition at 200 ppm [1] | inhibition at 200 ppm [2] | inhibition at 200 ppm [3] | inhibition at 200 ppm [4] | inhibition at 200 ppm [5]

O=C(OCc1ccc(C(F)(F)F)cc1Cl)c1cc2c(cc1F)COB2O [Compound 386]
≥ 80%: inhibition at 200 ppm (Pythium ultimum) | inhibition at 200 ppm [1] | inhibition at 200 ppm [2] | inhibition at 200 ppm (Gaeumannomyces graminis) | inhibition at 200 ppm [4] | inhibition at 200 ppm [5]

C#CCCCOC(=O)c1cc2c(cc1F)COB2O [Compound 395]
≥ 80%: pest or weed control at 200 ppm (Plasmopara viticola) | inhibition at 200 ppm (Pythium ultimum) | inhibition at 200 ppm [1] | inhibition at 200 ppm [2] | inhibition at 200 ppm (Gaeumannomyces graminis) | inhibition at 200 ppm [4] | inhibition at 200 ppm [5]

O=C(OCc1ccc(-c2ccccc2)cc1)c1ccc2c(c1)B(O)OC2 [Compound 325]
≥ 80%: inhibition at 200 ppm [1] | inhibition at 200 ppm [2] | inhibition at 200 ppm [3] | inhibition at 200 ppm (Gaeumannomyces graminis) | inhibition at 200 ppm [4]

O=C(OCC1CC1)c1cc2c(cc1F)COB2O [Compound 388]
≥ 80%: pest or weed control at 200 ppm (Plasmopara viticola) | inhibition at 200 ppm (Pythium ultimum) | inhibition at 200 ppm [1] | inhibition at 200 ppm [2] | inhibition at 200 ppm [3] | inhibition at 200 ppm (Gaeumannomyces graminis) | inhibition at 200 ppm [4] | inhibition at 200 ppm [5]

O=C(OC1CCC1)c1cc2c(cc1F)COB2O [Compound 392]
≥ 80%: pest or weed control at 200 ppm (Plasmopara viticola) | inhibition at 200 ppm (Pythium ultimum) | inhibition at 200 ppm [1] | inhibition at 200 ppm [2] | inhibition at 200 ppm [3] | inhibition at 200 ppm [4] | inhibition at 200 ppm [5]

O=C(OCC1CC1)c1ccc2c(c1)B(O)OC2 [Compound 328]
≥ 80%: pest or weed control at 200 ppm (Plasmopara viticola) | inhibition at 200 ppm (Pythium ultimum) | inhibition at 200 ppm [1] | inhibition at 200 ppm [2] | inhibition at 200 ppm [3] | inhibition at 200 ppm (Gaeumannomyces graminis) | inhibition at 200 ppm [4] | inhibition at 200 ppm [5]

C[Si](C)(C)/C=C/COC(=O)c1cc2c(cc1F)COB2O [Compound 404]
≥ 80%: inhibition at 200 ppm (Pythium ultimum) | inhibition at 200 ppm [1] | inhibition at 200 ppm [2] | inhibition at 200 ppm [3] | inhibition at 200 ppm (Gaeumannomyces graminis) | inhibition at 200 ppm [4] | inhibition at 200 ppm [5]

O=C(OCc1cccc2ccccc12)c1cc2c(cc1F)COB2O [Compound 394]
≥ 80%: pest or weed control at 200 ppm (Plasmopara viticola) | inhibition at 200 ppm (Pythium ultimum) | inhibition at 200 ppm [1] | inhibition at 200 ppm [2] | inhibition at 200 ppm [3] | inhibition at 200 ppm (Gaeumannomyces graminis) | inhibition at 200 ppm [4] | inhibition at 200 ppm [5]

C=C(C)COC(=O)c1cc2c(cc1Cl)COB2O [Compound 214]
≥ 80%: inhibition at 200 ppm (Pythium ultimum) | inhibition at 200 ppm [1] | inhibition at 200 ppm [2] | inhibition at 200 ppm [3] | inhibition at 200 ppm (Gaeumannomyces graminis) | inhibition at 200 ppm [4] | inhibition at 200 ppm [5]

O=C(OCCOc1ccc(Cl)cc1)c1cc2c(cc1F)COB2O [Compound 414]
≥ 80%: inhibition at 200 ppm (Pythium ultimum) | inhibition at 200 ppm [1] | inhibition at 200 ppm [2] | inhibition at 200 ppm [3] | inhibition at 200 ppm (Gaeumannomyces graminis) | inhibition at 200 ppm [4] | inhibition at 200 ppm [5]

COCCOC(=O)c1cc2c(cc1F)COB2O [Compound 412]
≥ 80%: pest or weed control at 200 ppm (Plasmopara viticola) | inhibition at 200 ppm (Pythium ultimum) | inhibition at 200 ppm [1] | inhibition at 200 ppm [2] | inhibition at 200 ppm [4] | inhibition at 200 ppm [5]

O=C(OCc1ccsc1)c1cc2c(cc1Cl)COB2O [Compound 439]
≥ 80%: pest or weed control at 200 ppm (Plasmopara viticola) | inhibition at 200 ppm (Pythium ultimum) | inhibition at 200 ppm [1] | inhibition at 200 ppm [2] | inhibition at 200 ppm [3] | inhibition at 200 ppm (Gaeumannomyces graminis) | inhibition at 200 ppm [4] | inhibition at 200 ppm [5]

O=C(OCC(F)(F)Cl)c1ccc2c(c1)B(O)OC2 [Compound 314]
≥ 80%: pest or weed control at 200 ppm (Plasmopara viticola) | inhibition at 200 ppm (Pythium ultimum) | inhibition at 200 ppm [1] | inhibition at 200 ppm [2] | inhibition at 200 ppm [3] | inhibition at 200 ppm (Gaeumannomyces graminis) | inhibition at 200 ppm [4] | inhibition at 200 ppm [5]

COc1ccc(OCCOC(=O)c2cc3c(cc2F)COB3O)cc1 [Compound 406]
≥ 80%: inhibition at 200 ppm (Pythium ultimum) | inhibition at 200 ppm [1] | inhibition at 200 ppm [2] | inhibition at 200 ppm [3] | inhibition at 200 ppm (Gaeumannomyces graminis) | inhibition at 200 ppm [4] | inhibition at 200 ppm [5]

C=CCOC(=O)c1ccc2c(c1)B(O)OC2 [Compound 340]
≥ 80%: pest or weed control at 200 ppm (Plasmopara viticola) | inhibition at 200 ppm (Pythium ultimum) | inhibition at 200 ppm [1] | inhibition at 200 ppm [2] | inhibition at 200 ppm [3] | inhibition at 200 ppm (Gaeumannomyces graminis) | inhibition at 200 ppm [4] | inhibition at 200 ppm [5]

O=C(OCc1ccc(-c2ccccc2)cc1)c1cc2c(cc1F)COB2O [Compound 385]
≥ 80%: inhibition at 200 ppm [1] | inhibition at 200 ppm [2] | inhibition at 200 ppm [3] | inhibition at 200 ppm (Gaeumannomyces graminis) | inhibition at 200 ppm [4] | inhibition at 200 ppm [5]

C#CCOC(=O)c1ccc2c(c1)B(O)OC2 [Compound 320]
≥ 80%: pest or weed control at 200 ppm (Plasmopara viticola) | inhibition at 200 ppm (Pythium ultimum) | inhibition at 200 ppm [1] | inhibition at 200 ppm [2] | inhibition at 200 ppm [3] | inhibition at 200 ppm (Gaeumannomyces graminis) | inhibition at 200 ppm [4] | inhibition at 200 ppm [5]

Cn1cc(CCCOC(=O)c2ccc3c(c2)B(O)OC3)cn1 [Compound 345]
≥ 80%: pest or weed control at 200 ppm (Plasmopara viticola) | inhibition at 200 ppm (Pythium ultimum) | inhibition at 200 ppm [1] | inhibition at 200 ppm [2] | inhibition at 200 ppm (Gaeumannomyces graminis) | inhibition at 200 ppm [5]

Cn1cc(CCCOC(=O)c2cc3c(cc2F)COB3O)cn1 [Compound 407]
≥ 80%: inhibition at 200 ppm (Pythium ultimum) | inhibition at 200 ppm [1] | inhibition at 200 ppm [2] | inhibition at 200 ppm [5]

COc1ccc(OCCOC(=O)c2cc3c(cc2Cl)COB3O)cc1 [Compound 218]
≥ 80%: inhibition at 200 ppm (Pythium ultimum) | inhibition at 200 ppm [1] | inhibition at 200 ppm [2] | inhibition at 200 ppm [3] | inhibition at 200 ppm (Gaeumannomyces graminis) | inhibition at 200 ppm [4] | inhibition at 200 ppm [5]

CC#CC(C)OC(=O)c1ccc2c(c1)B(O)OC2 (centres unmarked) [Compound 341]
≥ 80%: pest or weed control at 200 ppm (Plasmopara viticola) | inhibition at 200 ppm (Pythium ultimum) | inhibition at 200 ppm [1] | inhibition at 200 ppm [2] | inhibition at 200 ppm [3] | inhibition at 200 ppm (Gaeumannomyces graminis) | inhibition at 200 ppm [5]

O=C(OCc1cccc(F)c1)c1cc2c(cc1Cl)COB2O [Compound 241]
≥ 80%: inhibition at 200 ppm (Pythium ultimum) | inhibition at 200 ppm [1] | inhibition at 200 ppm [2] | inhibition at 200 ppm [3] | inhibition at 200 ppm (Gaeumannomyces graminis) | inhibition at 200 ppm [4] | inhibition at 200 ppm [5]

O=C(OCCF)c1ccc2c(c1)B(O)OC2 [Compound 360]
≥ 80%: pest or weed control at 200 ppm (Plasmopara viticola) | inhibition at 200 ppm (Pythium ultimum) | inhibition at 200 ppm [1] | inhibition at 200 ppm [2] | inhibition at 200 ppm [5]

CCCCCCCOC(=O)c1cc2c(cc1Cl)COB2O [Compound 195]
≥ 80%: inhibition at 200 ppm [1] | inhibition at 200 ppm [2] | inhibition at 200 ppm [3] | inhibition at 200 ppm (Gaeumannomyces graminis) | inhibition at 200 ppm [4] | inhibition at 200 ppm [5]

CCCCCCCOC(=O)c1cc2c(cc1F)COB2O [Compound 378]
≥ 80%: inhibition at 200 ppm (Pythium ultimum) | inhibition at 200 ppm [1] | inhibition at 200 ppm [2] | inhibition at 200 ppm [3] | inhibition at 200 ppm (Gaeumannomyces graminis) | inhibition at 200 ppm [4] | inhibition at 200 ppm [5]

CCCCSCCOC(=O)c1cc2c(cc1F)COB2O [Compound 384]
≥ 80%: inhibition at 200 ppm (Pythium ultimum) | inhibition at 200 ppm [1] | inhibition at 200 ppm [2] | inhibition at 200 ppm [3] | inhibition at 200 ppm [4] | inhibition at 200 ppm [5]
